Active and inactive are the calls of the source. The rule behind the calls is not given here.
Assays:
[1] = biological target: T1, Protein cereblon/Histone deacetylase 8 (Homo sapiens) (UniProt Q9BY41+Q96SW2); assay: Protac activity at CRBN/HDAC8 in human A549 cells assessed as degradation of HDAC8 at 2 uM measured after 20 hrs by Western blot analysis relative to control; assay type: cell-based
[2] = test system: A549; assay: Inhibition of colony formation in human A549 cells assessed as reduction in cell proliferation at 2.5 to 10 uM measured after 7 to 10 days with media replenishment along with compound for every 3 days by crystal violet staining based analysis; assay type: functional; settings: dose 2.5-10 µM, time 7-10 day
[3] = test system: A549; assay: Effect on OASL gene in human A549 cells at 10 uM measured after 20 hrs by RNA sequencing analysis; assay type: functional, cell-based
[4] = test system: A549; assay: Effect on EREG gene in human A549 cells at 10 uM measured after 20 hrs by RNA sequencing analysis; assay type: functional, cell-based
[5] = test system: A549; assay: Effect on NPTX1 gene in human A549 cells at 10 uM measured after 20 hrs by RNA sequencing analysis; assay type: functional, cell-based
[6] = test system: A549; assay: Effect on FSTL4 gene in human A549 cells at 10 uM measured after 20 hrs by RNA sequencing analysis; assay type: functional, cell-based
[7] = biological target: T2, Histone deacetylase 8 (Homo sapiens) (UniProt Q9BY41); assay: Induction of degradation in HDAC8 in human A549 cells incubated for 20 hrs by proteomic analysis; assay type: cell-based
T2 sequence (whole entry): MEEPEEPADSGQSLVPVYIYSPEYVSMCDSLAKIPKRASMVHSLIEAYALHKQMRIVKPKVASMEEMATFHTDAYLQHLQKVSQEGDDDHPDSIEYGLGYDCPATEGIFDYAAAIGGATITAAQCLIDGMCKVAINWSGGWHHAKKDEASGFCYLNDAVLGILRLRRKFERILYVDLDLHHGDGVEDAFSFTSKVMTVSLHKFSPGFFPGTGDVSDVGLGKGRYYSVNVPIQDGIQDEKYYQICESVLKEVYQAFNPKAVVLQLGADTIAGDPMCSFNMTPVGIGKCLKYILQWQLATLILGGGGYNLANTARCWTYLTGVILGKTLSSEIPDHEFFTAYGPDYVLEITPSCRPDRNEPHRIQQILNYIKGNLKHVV

[8] = test system: A549; assay: Downregulation of IL6ST in human A549 cells measured after 20 hrs by proteomic analysis; assay type: functional, cell-based
[9] = test system: A549; assay: Downregulation of COMMD1 in human A549 cells measured after 20 hrs by proteomic analysis; assay type: functional, cell-based
[10] = test system: A549; assay: Induction of apoptosis in human A549 cells assessed as viable cells at 1.25 uM incubated for 72 hrs by annexin V-FITC staining based flow cytometry (reference value: 99.9%); assay type: functional; settings: read-out: Activity
[11] = test system: A549; assay: Induction of apoptosis in human A549 cells assessed as viable cells at 2.5 uM incubated for 72 hrs by annexin V-FITC staining based flow cytometry (reference value: 99.9%); assay type: functional; settings: read-out: Activity
[12] = test system: A549; assay: Induction of apoptosis in human A549 cells assessed as viable cells at 5 uM incubated for 72 hrs by annexin V-FITC staining based flow cytometry (reference value: 99.9%); assay type: functional; settings: read-out: Activity
[13] = test system: A549; assay: Induction of apoptosis in human A549 cells assessed as early apoptotic cells at 1.25 uM incubated for 72 hrs by annexin V-FITC staining based flow cytometry (reference value: 0.099%); assay type: functional
[14] = test system: A549; assay: Induction of apoptosis in human A549 cells assessed as early apoptotic cells at 20 uM incubated for 72 hrs by annexin V-FITC staining based flow cytometry (reference value: 0.099%); assay type: functional
[15] = test system: A549; assay: Induction of apoptosis in human A549 cells assessed as late apoptotic cells at 5 uM incubated for 72 hrs by annexin V-FITC staining based flow cytometry (reference value: 0.048%); assay type: functional
[16] = test system: A549; assay: Induction of apoptosis in human A549 cells assessed as late apoptotic cells at 10 uM incubated for 72 hrs by annexin V-FITC staining based flow cytometry (reference value: 0.048%); assay type: functional
[17] = test system: A549; assay: Induction of apoptosis in human A549 cells assessed as necrotic cells at 10 uM incubated for 72 hrs by annexin V-FITC staining based flow cytometry relative to control; assay type: functional
[18] = test system: A549; assay: Induction of apoptosis in human A549 cells assessed as upregulation of cleaved PARP level measured after 48 hrs by Western blot analysis; assay type: functional, cell-based; settings: dose 1.25-20 µM
[19] = test system: A549; assay: Induction of apoptosis in human A549 cells assessed as necrotic cells at 5 uM by annexin V-FITC staining based flow cytometry (reference value: 0%); assay type: functional
[20] = test system: A549; assay: Induction of cell cycle arrest in human A549 cells assessed as accumulation of cells at G2/M phase at 20 uM measured after 72 hrs by propidium iodide staining based flow cytometry analysis; assay type: functional
[21] = biological target: T1, Protein cereblon/Histone deacetylase 8 (Homo sapiens); assay: Protac activity at CRBN/HDAC8 in human A549 cells assessed as reduction in HDAC8 protein level by Western blot analysis; assay type: cell-based; settings: dose 0.2-10 µM
[22] = biological target: Protein cereblon/Histone deacetylase 3 (Homo sapiens) (UniProt O15379+Q96SW2); assay: Protac activity at CRBN/HDAC3 in human A549 cells assessed as reduction in HDAC3 protein level at 0.1 to 10 uM by Western blot analysis; assay type: cell-based; settings: dose 0.1-10 µM
[23] = biological target: T3, Protein cereblon/Histone deacetylase 9 (Homo sapiens) (UniProt Q9UKV0+Q96SW2); assay: Protac activity at CRBN/HDAC9 in human A549 cells assessed as reduction in HDAC9 protein level at 0.1 to 10 uM by Western blot analysis; assay type: cell-based; settings: dose 0.1-10 µM
[24] = biological target: Cereblon/Ikaros (Homo sapiens) (UniProt Q96SW2+Q13422); assay: Protac activity at CRBN/IKZF1 in human A549 cells assessed as reduction in IKZF1 protein level at 10 uM by Western blot analysis; assay type: cell-based
[25] = biological target: T1, Protein cereblon/Histone deacetylase 8 (Homo sapiens); assay: Protac activity at CRBN/HDAC8 in human HCT-116 cells assessed as reduction in HDAC8 protein level at 0.1 to 10 uM by Western blot analysis; assay type: cell-based; settings: dose 0.1-10 µM
[26] = biological target: T3, Protein cereblon/Histone deacetylase 9 (Homo sapiens); assay: Protac activity at CRBN/HDAC9 in human A549 cells assessed as degradation of HDAC9 at 0.1 to 10 uM by Western blot analysis; assay type: cell-based; settings: dose 0.1-10 µM
[27] = biological target: T1, Protein cereblon/Histone deacetylase 8 (Homo sapiens); assay: Protac activity at CRBN/HDAC8 in human A549 cells assessed as decrease in PGM1 expression at 0.1 to 10 uM under glucose deprivation condition by Western blot analysis; assay type: cell-based; settings: dose 0.1-10 µM
[28] = biological target: T1, Protein cereblon/Histone deacetylase 8 (Homo sapiens); assay: Protac activity at CRBN/HDAC8 in human MDA-MB-231 cells assessed as decrease in SMAD3 protein level at 0.1 to 10 uM by Western blot analysis; assay type: cell-based; settings: dose 0.1-10 µM
[29] = test system: A549; assay: Inhibition of DNA damage repair in human A549 cells assessed as decrease in gamma-H2AX level at 5 uM incubated for 24 hrs followed by irradiation for 4 hrs by immunofluorescence staining based analysis; assay type: functional, cell-based
[30] = test system: A549; assay: Antitumor activity against human A549 cells xenografted in NOD/SCID mouse at 5 mg/kg, ip administered every 5 days measured at day 30; assay type: functional, organism-based; settings: time 30.0 day

T1 sequence (Q96SW2 whole entry, looked up, one chain of several): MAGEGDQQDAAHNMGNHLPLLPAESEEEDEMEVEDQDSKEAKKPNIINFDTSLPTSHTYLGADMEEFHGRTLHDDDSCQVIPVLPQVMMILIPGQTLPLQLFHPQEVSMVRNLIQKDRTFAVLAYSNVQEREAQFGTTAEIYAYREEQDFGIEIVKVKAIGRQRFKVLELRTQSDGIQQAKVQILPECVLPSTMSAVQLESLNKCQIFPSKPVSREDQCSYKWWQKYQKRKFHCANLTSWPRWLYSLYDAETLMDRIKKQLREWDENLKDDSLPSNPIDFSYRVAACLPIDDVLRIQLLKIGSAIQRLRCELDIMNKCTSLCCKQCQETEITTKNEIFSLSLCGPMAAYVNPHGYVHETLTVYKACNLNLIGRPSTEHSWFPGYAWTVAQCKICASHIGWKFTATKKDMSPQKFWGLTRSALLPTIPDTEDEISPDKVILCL
T3 sequence (Q96SW2 whole entry, looked up): as the sequence (Q96SW2 whole entry, looked up, one chain of several) above
T3 sequence (Q9UKV0 whole entry, looked up): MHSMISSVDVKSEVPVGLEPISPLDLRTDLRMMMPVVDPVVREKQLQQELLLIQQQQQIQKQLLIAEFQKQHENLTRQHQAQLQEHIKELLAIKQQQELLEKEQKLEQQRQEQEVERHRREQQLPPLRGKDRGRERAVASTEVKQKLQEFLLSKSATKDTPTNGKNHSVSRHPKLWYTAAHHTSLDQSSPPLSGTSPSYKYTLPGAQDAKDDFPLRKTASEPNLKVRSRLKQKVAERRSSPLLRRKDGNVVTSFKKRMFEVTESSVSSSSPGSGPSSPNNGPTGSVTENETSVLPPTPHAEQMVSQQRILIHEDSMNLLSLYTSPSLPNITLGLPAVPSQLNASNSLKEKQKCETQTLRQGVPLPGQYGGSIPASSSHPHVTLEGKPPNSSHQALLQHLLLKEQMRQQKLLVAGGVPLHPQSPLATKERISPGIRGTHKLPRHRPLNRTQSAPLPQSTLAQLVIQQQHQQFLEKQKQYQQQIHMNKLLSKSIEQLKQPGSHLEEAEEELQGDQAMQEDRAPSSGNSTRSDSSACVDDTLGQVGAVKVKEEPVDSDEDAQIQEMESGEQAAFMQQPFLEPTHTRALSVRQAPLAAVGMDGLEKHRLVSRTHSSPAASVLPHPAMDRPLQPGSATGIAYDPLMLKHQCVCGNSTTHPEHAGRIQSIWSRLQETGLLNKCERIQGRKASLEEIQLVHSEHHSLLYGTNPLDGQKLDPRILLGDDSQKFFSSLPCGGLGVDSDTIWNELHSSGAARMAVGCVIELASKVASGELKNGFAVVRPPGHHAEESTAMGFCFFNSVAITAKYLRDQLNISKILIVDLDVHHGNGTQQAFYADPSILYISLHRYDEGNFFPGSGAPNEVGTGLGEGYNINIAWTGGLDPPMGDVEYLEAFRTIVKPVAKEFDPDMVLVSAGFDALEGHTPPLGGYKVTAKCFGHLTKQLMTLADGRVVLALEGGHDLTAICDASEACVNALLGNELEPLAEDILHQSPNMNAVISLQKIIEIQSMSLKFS
Chain of Protein cereblon/Histone deacetylase 3 (Homo sapiens) (O15379 whole entry, looked up): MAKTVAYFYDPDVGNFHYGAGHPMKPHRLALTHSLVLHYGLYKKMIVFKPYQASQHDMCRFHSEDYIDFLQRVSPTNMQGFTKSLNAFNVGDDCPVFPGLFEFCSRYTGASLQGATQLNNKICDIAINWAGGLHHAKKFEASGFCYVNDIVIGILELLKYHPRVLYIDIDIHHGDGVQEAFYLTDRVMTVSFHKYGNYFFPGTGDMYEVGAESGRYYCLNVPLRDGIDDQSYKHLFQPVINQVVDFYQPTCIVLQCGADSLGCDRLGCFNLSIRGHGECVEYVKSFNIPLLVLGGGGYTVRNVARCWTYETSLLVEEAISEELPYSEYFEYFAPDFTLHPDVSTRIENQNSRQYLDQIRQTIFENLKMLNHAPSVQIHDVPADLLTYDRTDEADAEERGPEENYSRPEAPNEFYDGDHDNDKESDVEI
Chain of Protein cereblon/Histone deacetylase 3 (Homo sapiens) (Q96SW2 whole entry, looked up): as the sequence (Q96SW2 whole entry, looked up, one chain of several) above

Activity [1]: 85.4%
Activity [7]: Active
Activity [21]: Dose-Dependent Effect
Activity [22]: inactive
Activity [23]: inactive
Activity [24]: Active
Activity [25]: Active
Activity [26]: inactive
Activity [27]: Active
Activity [28]: Active
SMILES: O=C1CCC(N2C(=O)c3cccc(NCc4cn(CCOCCOc5ccc(Cn6ccc7ccc(C(=O)NO)cc76)cc5)nn4)c3C2=O)C(=O)N1 (stereo not given)
inhibition [2]: Active
Activity [3]: Active
Activity [4]: Active
Activity [5]: Active
Activity [6]: Active
Activity [8]: Active
Activity [9]: Active
viability at 1.25 µM [10]: 68.2%
viability at 2.5 µM [11]: 61.7%
viability at 5 µM [12]: 54.9%
Activity [13]: 24.2%
Activity [14]: 70.4%
Activity [15]: 21.8%
Activity [16]: 22.2%
Activity [17]: 1.52%
Activity [18]: Dose-Dependent Effect
Activity [19]: 2.37%
Activity [20]: inactive
inhibition [29]: Active
Activity [30]: Active

— ChEMBL document CHEMBL5316263, “Structure-Based Discovery of Selective Histone Deacetylase 8 Degraders with Potent Anticancer Activity” (J Med Chem, 2023)
